Values quoted from earlier work, collected in patent US20150086650A1 (priority 2012, published 2015).

Legend:
[1] = rats

CO/C=C(/C(=O)OC)c1ccccc1Oc1cc(Oc2ccccc2C#N)ncn1 [Azoxystrobin]
acute oral LD50 [1]: more than 5,000 mg/kg
inhalation toxicity classification: toxic by inhalation
